Measurements taken from publication PMC10663540, “Structure-based discovery of dual pathway inhibitors for SARS-CoV-2 entry” (Nature Communications, 2023).
“And” between values parts separate entries of the source, which are not always exact repeats. Equal entries are not always repeated. Where two headings read alike, the source gives them in different places.

Assays:
in vitro = details: human
human CTSL = target: T1, human CTSL (Homo sapiens, UniProt P07711); test: FRET enzymatic inhibition assay of CTSL (IC50 measurement); type: biochemical
T1 construct: made in house
T1 sequence (P07711 114-333): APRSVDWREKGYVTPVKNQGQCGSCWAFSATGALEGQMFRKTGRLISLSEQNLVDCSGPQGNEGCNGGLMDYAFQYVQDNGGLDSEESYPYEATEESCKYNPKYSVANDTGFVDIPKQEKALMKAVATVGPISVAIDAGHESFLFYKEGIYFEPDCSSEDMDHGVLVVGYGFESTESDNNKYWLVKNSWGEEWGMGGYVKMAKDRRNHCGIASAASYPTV

human CTSB = target: T2, human CTSB (Homo sapiens, UniProt P07858); test: biochemical
T2 construct: […]; made in house

Calu-3 cells = details: rep1-rep3
[1] = 0.0762939 nM, rep1-rep4, 7.62939e-05 µM
[2] = 0.152588 nM, rep1-rep4, 0.000152588 µM
[3] = 0.610352 nM, rep1-rep4, 0.000610352 µM
[4] = 1.2207 nM, rep1-rep4, 0.0012207 µM
[5] = 2.44141 nM, rep1-rep4, 0.00244141 µM
[6] = 4.88281 nM, rep1-rep4, 0.00488281 µM
[7] = 9.76562 nM, rep1-rep4, 0.00976562 µM
[8] = 19.5312 nM, rep1-rep4, 0.0195312 µM
[9] = 39.0625 nM, rep1-rep4, 0.0390625 µM
[10] = 78.125 nM, rep1-rep4, 0.078125 µM
[11] = 156.25 nM, rep1-rep4, 0.15625 µM
[12] = substrate Cbz-Phe-Arg-AMC, pH 5.5, mean ± SD, four replicates

For `N=C(N)c1ccc2cc(OC(=O)c3ccc(N=C(N)N)cc3)ccc2c1` [Nafamostat], the CC50 (in vitro) was 452 µM.
In the case of `CCOC(=O)C1OC1C(=O)NC(CC(C)C)C(=O)NCCC(C)C` (stereo not shown) [E64d], the “Inhibition: CTSL” value (human CTSL; [1]) is reported as 2.24% and 3.63% and 1.98% and 0.98%, the “Inhibition: CTSL” value (human CTSL; [2]) is reported as 2.65% and 3.08% and 2.24% and -1.44% and the “Inhibition: CTSL” value (human CTSL; [3]) is reported as 0.22% and 3.41%. The “Inhibition: CTSL” value (human CTSL; [4]) was 6.37% and 4.18%, the “Inhibition: CTSL” value (human CTSL; [5]) was 4.98% and 7.04% and 0.43% and 3.83% and the “Inhibition: CTSL” value (human CTSL; [6]) was 0.11% and 3.42% and 5.91% and 2.54%. For the same compound, the “Inhibition: CTSL” value (human CTSL; [7]) was 8.11% and 8.13% and 3.91% and 9.27%, the inhibition at 0.0195312 µM (human CTSL; 19.5312 nM, rep1-rep4) was 10.1% and the “Inhibition: CTSL” value (human CTSL; [8]) was 17.79% and 9.24% and 15.72%. The inhibition at 0.0390625 µM (human CTSL; 39.0625 nM, rep1-rep4) was 26.6%, the “Inhibition: CTSL” value (human CTSL; [9]) was 23.44% and 25.85% and 26.69% and the inhibition at 0.078125 µM (human CTSL; 78.125 nM, rep1-rep4) was 45.2%. The “Inhibition: CTSL” value (human CTSL; [10]) was 44.64% and 44.43% and 46.07%, the inhibition at 0.15625 µM (human CTSL; 156.25 nM, rep1-rep4) was 72.7% and the “Inhibition: CTSL” value (human CTSL; [11]) was 70.94% and 71.67% and 71.32%. The inhibition at 0.3125 µM (human CTSL; 312.5 nM, rep1-rep4) was 93.6%, the “Inhibition: CTSL” value (human CTSL; 312.5 nM, rep1-rep4, 0.3125 µM) was 93.64% and 93.89% and 93.96% and the inhibition at 0.625 µM (human CTSL; 625 nM, rep1-rep4) was 99.2%. For the same compound, the “Inhibition: CTSL” value (human CTSL; 625 nM, rep1-rep4, 0.625 µM) was 99.81% and 99.40% and 99.47%, the inhibition at 1.25 µM (human CTSL; 1250 nM, rep1-rep4) was 100% and the “Inhibition: CTSL” value (human CTSL; 1250 nM, rep1-rep4, 1.25 µM) was 100.20% and 99.89%. The inhibition at 2.5 µM (human CTSL; 2500 nM, rep1-rep4) was 99.2%, the “Inhibition: CTSL” value (human CTSL; 2500 nM, rep1-rep4, 2.5 µM) was 100.15% and 100.23% and 99.74% and the inhibition at 5 µM (human CTSL; 5000 nM, rep1-rep4) was 99.9%. For the same compound, the “Inhibition: CTSL” value (human CTSL; 5000 nM, rep1-rep4, 5 µM) was 100.31% and 99.95%, the inhibition at 10 µM (human CTSL; 10000 nM, rep1-rep4) was 100% and the “Inhibition: CTSL” value (human CTSL; 10000 nM, rep1-rep4, 10 µM) was 100.02% and 99.97%. The IC50 (human CTSL; [12]) was 0.0889 µM, the “Inhibition: CTSB” value (human CTSB; [1]) was 3.40% and 10.64% and 11.97% and 5.82% and the “Inhibition: CTSB” value (human CTSB; [4]) was -7.91% and 0.42% and 2.07% and 0.65%. The inhibition at 0.15625 µM (human CTSB; 156.25 nM, rep1-rep4) was 35.3%, the “Inhibition: CTSB” value (human CTSB; [11]) was 44.31% and 44.26% and 38.99% and the inhibition at 0.3125 µM (human CTSB; 312.5 nM, rep1-rep4) was 56.2%. The “Inhibition: CTSB” value (human CTSB; 312.5 nM, rep1-rep4, 0.3125 µM) was 62.85% and 55.87% and 62.55%, the inhibition at 0.625 µM (human CTSB; 625 nM, rep1-rep4) was 80.1% and the “Inhibition: CTSB” value (human CTSB; 625 nM, rep1-rep4, 0.625 µM) was 80.11% and 80.88% and 83.45%. For the same compound, the inhibition at 1.25 µM (human CTSB; 1250 nM, rep1-rep4) was 98.7%, the “Inhibition: CTSB” value (human CTSB; 1250 nM, rep1-rep4, 1.25 µM) was 92.94% and 89.91% and 97.77% and the inhibition at 2.5 µM (human CTSB; 2500 nM, rep1-rep4) was 95.4%. For the same compound, the “Inhibition: CTSB” value (human CTSB; 2500 nM, rep1-rep4, 2.5 µM) was 107.12% and 95.70% and 101.34%, the inhibition at 5 µM (human CTSB; 5000 nM, rep1-rep4) was 105% and the “Inhibition: CTSB” value (human CTSB; 5000 nM, rep1-rep4, 5 µM) was 104.22% and 97.92% and 95.52%. For the same compound, the inhibition at 10 µM (human CTSB; 10000 nM, rep1-rep4) was 97.9%, the “Inhibition: CTSB” value (human CTSB; 10000 nM, rep1-rep4, 10 µM) was 102.20% and 95.59% and 101.48% and the IC50 (human CTSB; [12]) was 0.244 µM. For the same compound, the Cytotoxicity (Calu-3 cells; 0.017 μM) was 7.45% and 7.84% and 8.16%, the Cytotoxicity (Calu-3 cells; 0.05 μM) was 11.45% and 12.03% and 11.72% and the Cytotoxicity (Calu-3 cells; 0.15 μM) was 9.87% and 10.28% and 10.63%. The Cytotoxicity (Calu-3 cells; 0.46 μM) was 7.15% and 7.70% and 8.12%, the Cytotoxicity (Calu-3 cells; 4.1 μM) was 1.63% and 2.06% and 2.63% and the Cytotoxicity (Calu-3 cells; 12.3 μM) was -0.11% and 0.47% and 0.96%. For the same compound, the Cytotoxicity (Calu-3 cells; 111.1 μM) was -4.79% and -4.14% and -3.55%, the Cytotoxicity (Calu-3 cells; 333.3 μM) was 12.34% and 13.88% and 14.55% and the Cytotoxicity (Calu-3 cells; 1000 μM) was 23.12% and 23.57% and 24.06%. It also gave a CC50 (in vitro) of over 1000 µM.
With `CN1CCN(C(=O)N[C@@H](Cc2ccccc2)C(=O)N[C@H](/C=C/S(=O)(=O)c2ccccc2)CCc2ccccc2)CC1` [K777] the “Inhibition: CTSL” value (human CTSL; [1]) was 1.13% and 5.78% and 3.59% and 2.15%, the inhibition at 0.000152588 µM (human CTSL; 0.152588 nM, rep1-rep4) was 5.42% and the “Inhibition: CTSL” value (human CTSL; [2]) was 10.09% and 6.36% and 10.80%. For the same compound, the inhibition at 0.000610352 µM (human CTSL; 0.610352 nM, rep1-rep4) was 9.96%, the “Inhibition: CTSL” value (human CTSL; [3]) was 11.08% and 11.88% and 12.12% and the inhibition at 0.0012207 µM (human CTSL; 1.2207 nM, rep1-rep4) was 14.1%. For the same compound, the “Inhibition: CTSL” value (human CTSL; [4]) was 15.17% and 15.67% and 15.23%, the inhibition at 0.00244141 µM (human CTSL; 2.44141 nM, rep1-rep4) was 27.1% and the “Inhibition: CTSL” value (human CTSL; [5]) was 29.89% and 27.84% and 28.16%. For the same compound, the inhibition at 0.00488281 µM (human CTSL; 4.88281 nM, rep1-rep4) was 46.7%, the “Inhibition: CTSL” value (human CTSL; [6]) was 49.46% and 47.59% and 48.29% and the inhibition at 0.00976562 µM (human CTSL; 9.76562 nM, rep1-rep4) was 73.6%. The “Inhibition: CTSL” value (human CTSL; [7]) was 74.62% and 72.91% and 72.68%, the inhibition at 0.0195312 µM (human CTSL; 19.5312 nM, rep1-rep4) was 93.2% and the “Inhibition: CTSL” value (human CTSL; [8]) was 93.40% and 92.49% and 94.07%. The inhibition at 0.0390625 µM (human CTSL; 39.0625 nM, rep1-rep4) was 99.5%, the “Inhibition: CTSL” value (human CTSL; [9]) was 98.76% and 99.78% and 99.61% and the inhibition at 0.078125 µM (human CTSL; 78.125 nM, rep1-rep4) was 100%. For the same compound, the “Inhibition: CTSL” value (human CTSL; [10]) was 99.93% and 100.35% and 99.32%, the inhibition at 0.15625 µM (human CTSL; 156.25 nM, rep1-rep4) was 100% and the “Inhibition: CTSL” value (human CTSL; [11]) was 100.75% and 100.78%. For the same compound, the inhibition at 0.3125 µM (human CTSL; 312.5 nM, rep1-rep4) was 100%, the “Inhibition: CTSL” value (human CTSL; 312.5 nM, rep1-rep4, 0.3125 µM) was 100.44% and 100.24% and 99.50% and the inhibition at 0.625 µM (human CTSL; 625 nM, rep1-rep4) was 100%. The “Inhibition: CTSL” value (human CTSL; 625 nM, rep1-rep4, 0.625 µM) was 100.05% and 99.89%, the inhibition at 1.25 µM (human CTSL; 1250 nM, rep1-rep4) was 100% and the “Inhibition: CTSL” value (human CTSL; 1250 nM, rep1-rep4, 1.25 µM) was 100.44% and 100.07% and 99.92%. For the same compound, the inhibition at 2.5 µM (human CTSL; 2500 nM, rep1-rep4) was 100%, the “Inhibition: CTSL” value (human CTSL; 2500 nM, rep1-rep4, 2.5 µM) was 100.03% and 100.38% and 100.68% and the inhibition at 5 µM (human CTSL; 5000 nM, rep1-rep4) was 100%. For the same compound, the “Inhibition: CTSL” value (human CTSL; 5000 nM, rep1-rep4, 5 µM) was 100.04% and 100.18% and 100.13%, the inhibition at 10 µM (human CTSL; 10000 nM, rep1-rep4) was 100% and the “Inhibition: CTSL” value (human CTSL; 10000 nM, rep1-rep4, 10 µM) was 100.22% and 100.09% and 99.98%. The Cytotoxicity (Calu-3 cells; 0.017 μM) was 8.99% and 10.05% and 10.29%, the Cytotoxicity (Calu-3 cells; 0.05 μM) was 20.39% and 20.63% and 20.94% and the Cytotoxicity (Calu-3 cells; 0.15 μM) was 17.33% and 17.61% and 17.94%. The Cytotoxicity (Calu-3 cells; 0.46 μM) was 15.43% and 15.73% and 16.02%, the Cytotoxicity (Calu-3 cells; 4.1 μM) was 16.54% and 16.77% and 16.98% and the Cytotoxicity (Calu-3 cells; 12.3 μM) was 18.57% and 18.78% and 19.05%. For the same compound, the Cytotoxicity (Calu-3 cells; 37 μM) was 15.46% and 15.63% and 15.88%, the Cytotoxicity (Calu-3 cells; 111.1 μM) was 60.74% and 60.66% and 60.71% and the Cytotoxicity (Calu-3 cells; 333.3 μM) was 97.79% and 97.81%. It also gave a Cytotoxicity (Calu-3 cells; 1000 μM) of 99.56% and a CC50 (in vitro) of 110 µM.
